Results on six molecules are retold here after ChEMBL document CHEMBL1201862, “PubChem BioAssay data set” (2004).

Calls of active or inactive are those of the source.

The term AC50 denotes the midpoint of the concentration-response curve, whichever way the signal moves. In general, EC50 refers to the concentration needed to bring the measured effect to its halfway point.

A short description of assay [1]: non-specific 3'UTR reporter inhibition in Clone20-Shn3RL – cell-based, Renilla luciferase, cherry-picked, counter-screen for Shn3 inhibitor project, dose response (AID 624133). Format: functional. A general note: The purpose of a counterscreen is to sort out artefacts and off-target activity.
Assay [2] can be described thus: reduction of Shn3 3'UTR-driven luciferase in osteoblasts – cell-based, Clone20 osteoblasts, firefly luciferase, cherry-picked, dose response (AID 624132).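 Note: firefly luciferase luminescence from reporter carrying the Shn3 3'UTR in osteoblasts.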 The format is functional.
A further assay deals with Nonstructural protein 1 (Influenza A virus, UniProt Q194T2). Format: functional, Influenza A virus (A/California/07/2009(H1N1)).
The target of assay [3] is T1, Polyadenylate-binding protein 1 (Homo sapiens, UniProt P11940). Description: MLLE domain peptide-binding blockers, IC50 – biochemical, fluorescence polarization, FITC-PAM2 peptide, dose response (AID 602259). Format: functional. As to conditions: read-out: IC50_Mean. Background: Fluorescence polarisation rises when a labelled molecule tumbles more slowly, as on binding a larger partner.

Assay [4] concerns the target T2, Mannose-6-phosphate isomerase (Homo sapiens, UniProt P34949).
T2 sequence (P34949 whole entry): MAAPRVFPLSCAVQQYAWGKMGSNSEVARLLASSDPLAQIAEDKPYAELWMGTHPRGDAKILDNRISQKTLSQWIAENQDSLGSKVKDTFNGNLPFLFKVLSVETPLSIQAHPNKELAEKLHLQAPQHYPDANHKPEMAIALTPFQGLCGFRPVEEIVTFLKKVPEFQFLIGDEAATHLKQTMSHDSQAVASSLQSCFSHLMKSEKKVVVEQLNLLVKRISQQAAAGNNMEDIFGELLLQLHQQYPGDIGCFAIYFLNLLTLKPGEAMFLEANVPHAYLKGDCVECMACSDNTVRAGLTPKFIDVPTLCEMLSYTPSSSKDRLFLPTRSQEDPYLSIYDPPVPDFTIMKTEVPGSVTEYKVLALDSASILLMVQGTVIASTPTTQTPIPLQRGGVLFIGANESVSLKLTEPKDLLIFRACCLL
Description: MPI enzyme activity inhibition – biochemical, fluorescence intensity, coupled assay, primary screen (AID 1209).

A short description of assay [5]: loss of viability in HepG2 cells – cell-based, CellTiter-Glo, cherry-picked, cytotoxicity control for Shn3 inhibitor project, dose response (AID 624134). Format: functional. (In ATP-based viability assays light output follows the ATP content of the culture.)
The target in assay [6] is T2, Mannose-6-phosphate isomerase. Description: MPI inhibition at elevated mannose 6-phosphate – biochemical, fluorescence intensity, high mannose 6-phosphate, primary screen (AID 1220).
Assay [7] has as its target T3, Heat shock factor protein 1 (Mus musculus, UniProt P38532).
T3 sequence (P38532 whole entry): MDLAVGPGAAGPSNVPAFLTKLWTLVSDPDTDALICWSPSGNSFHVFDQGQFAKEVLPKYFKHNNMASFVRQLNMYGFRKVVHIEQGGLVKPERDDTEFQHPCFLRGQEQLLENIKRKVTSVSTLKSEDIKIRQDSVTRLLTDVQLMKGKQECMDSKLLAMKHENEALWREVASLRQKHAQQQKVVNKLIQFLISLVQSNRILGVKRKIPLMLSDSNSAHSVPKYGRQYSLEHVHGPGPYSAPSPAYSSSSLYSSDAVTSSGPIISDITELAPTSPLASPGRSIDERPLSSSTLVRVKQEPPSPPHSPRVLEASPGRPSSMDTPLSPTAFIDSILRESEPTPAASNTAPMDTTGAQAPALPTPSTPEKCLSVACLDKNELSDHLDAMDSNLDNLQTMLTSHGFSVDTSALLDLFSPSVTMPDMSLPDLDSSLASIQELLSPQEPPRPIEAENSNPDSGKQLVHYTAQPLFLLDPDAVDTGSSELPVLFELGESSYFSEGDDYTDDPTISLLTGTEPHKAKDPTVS
The assay is described as follows: decrease of HSF1-responsive luciferase luminescence – cell-based, NIH3T3, dose retest, confirmation (AID 2382).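 Note: NIH3T3 fibroblasts with HSF1-driven luciferase reporter stressed by proteasome inhibitor MG132; luminescence from HSF1-driven luciferase expression after 8 hours of MG132 stress.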 The format is functional.

Assay [8] concerns the target T1, Polyadenylate-binding protein 1. Description: MLLE binding blockers, Cy5 peptide tracer – biochemical, fluorescence polarization, Cy5-PAM2 peptide, secondary, miRNA deadenylation inhibitor project, dose response (AID 602260). To be noted: read-out: IC50_Mean. Format: functional.
The subject of a further assay is INS1. Description: INS-1E survival protection against cytokine death – cell-based, luminescence, retest, dose response (AID 449756).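 Note: cell death triggered by IL-1 beta plus TNF-alpha plus IFN-gamma mixture; protective hits raise ATP signal compared with cytokine alone wells.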 The format is functional. To be noted: Rattus norvegicus.
The nature of assay [9]: viability loss of HPDE-C7K cells – cell-based, fluorescence, HTS, primary screen (AID 431). Format: functional. As to conditions: Homo sapiens.
Assay [10] concerns the target T4, Estrogen receptor beta (Homo sapiens, UniProt Q92731). Description: blockers of SRC-3 recruitment to ERβ – biochemical, ELISA, streptavidin-HRP readout, orthogonal assay, confirmation (AID 1060).
For assay [11], the target named is T5, Tyrosine-protein phosphatase non-receptor type 7 (Homo sapiens, UniProt P35236).
T5 sequence (P35236 whole entry): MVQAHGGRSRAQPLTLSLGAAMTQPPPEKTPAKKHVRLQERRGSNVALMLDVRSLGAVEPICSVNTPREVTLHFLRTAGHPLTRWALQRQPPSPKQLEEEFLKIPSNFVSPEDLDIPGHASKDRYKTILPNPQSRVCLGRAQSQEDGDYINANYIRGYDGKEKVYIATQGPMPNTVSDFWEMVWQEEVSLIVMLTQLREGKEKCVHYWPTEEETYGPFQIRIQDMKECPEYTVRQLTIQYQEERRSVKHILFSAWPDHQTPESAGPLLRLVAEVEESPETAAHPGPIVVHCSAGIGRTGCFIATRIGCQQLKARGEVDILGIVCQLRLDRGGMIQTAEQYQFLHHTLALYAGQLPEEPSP
The assay is described as follows: HePTP tyrosine phosphatase activity blockers – biochemical, absorbance, leukemia target, primary screen (AID 521). The format is functional.

Assay [12] in a line: HPDE-C7 pancreatic duct cell viability loss – fluorescence, HTS (AID 430). To be noted: Homo sapiens. The format is functional, cell-based.
A further assay addresses Cytochrome P450 2D6 (Homo sapiens, UniProt P10635).
Assay [13] concerns the target T4, Estrogen receptor beta.
For assay [14], the target named is T3, Heat shock factor protein 1. Description: enhancement of HSF1-driven luciferase signal – cell-based, NIH3T3, luminescence, dose retest, confirmation (AID 435004).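 Note: stress induced by proteasome inhibitor MG132 added 30 min after compound; luciferase reporter driven by HSF1 response element in NIH3T3 cells; actives raise luminescence as potentiators of the MG132 stress response.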 The format is functional.
Assay [15] addresses T6, Induced myeloid leukemia cell differentiation protein Mcl-1 (Homo sapiens, UniProt Q07820). Description: blockers of MCL1 binding to BIM peptide – biochemical, fluorescence polarization, BIM-BH3 peptide, 1536-well, dose response (AID 2217).
The next assay deals with Genome polyprotein (dengue virus type 2, UniProt P29990). Description: flavivirus cap methylation enzyme inhibition – biochemical, confirmation dose response, primary screen (AID 588689). Format: functional.
The target of a further assay is Bcl-2-like protein 1 (Homo sapiens, UniProt Q07817). The assay is described as follows: blockers of BCLXL peptide binding – biochemical, fluorescence polarization, 1536-well, selectivity assay for MCL1 inhibitor project, dose response (AID 2218).
For a further assay, the target named is T7, Bcl-2-like protein 10 (Homo sapiens, UniProt Q9HD36).
T7 sequence (Q9HD36 whole entry): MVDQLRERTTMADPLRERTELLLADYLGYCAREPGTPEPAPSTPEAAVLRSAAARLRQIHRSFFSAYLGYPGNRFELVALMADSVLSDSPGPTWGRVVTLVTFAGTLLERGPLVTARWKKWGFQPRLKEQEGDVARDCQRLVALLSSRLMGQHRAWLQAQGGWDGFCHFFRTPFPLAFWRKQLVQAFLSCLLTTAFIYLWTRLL
Description: Bcl-B/TR3 peptide binding disruption – biochemical, fluorescence polarization, FITC-TR3 peptide, selectivity assay for Bfl-1 inhibitor project, primary screen (AID 748).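 Note: fluorescence polarization from a fluorescein-labelled TR3 peptide binding purified Bcl-B.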

Assay [16] addresses Protein-tyrosine kinase 2-beta (Homo sapiens, UniProt Q14289).
Assay [17] concerns the target T6, Induced myeloid leukemia cell differentiation protein Mcl-1. The format is functional.
The target of another assay is NADPH oxidase 1 (Homo sapiens, UniProt Q9Y5S8). Format: functional, cell-based.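 Note: Cell-based assay with luminescence read-out, IC50 derived from inhibitor dose-response curves; intracellular ROS from endogenous NOX1 in intact HT29 colon cancer cells; potency of inhibitors that lower the ROS luminescence signal.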
Assay [18] addresses Sphingosine 1-phosphate receptor 2 (Homo sapiens, UniProt O95136). Description: Dose Response Cell Based Assay for Agonists of the S1P2 Receptor of Purchased Analogues. [Related pubchem assays: 729, 843, 854, 736 ]. The format is functional.

T1 sequence (P11940 whole entry, the tested form may be a part): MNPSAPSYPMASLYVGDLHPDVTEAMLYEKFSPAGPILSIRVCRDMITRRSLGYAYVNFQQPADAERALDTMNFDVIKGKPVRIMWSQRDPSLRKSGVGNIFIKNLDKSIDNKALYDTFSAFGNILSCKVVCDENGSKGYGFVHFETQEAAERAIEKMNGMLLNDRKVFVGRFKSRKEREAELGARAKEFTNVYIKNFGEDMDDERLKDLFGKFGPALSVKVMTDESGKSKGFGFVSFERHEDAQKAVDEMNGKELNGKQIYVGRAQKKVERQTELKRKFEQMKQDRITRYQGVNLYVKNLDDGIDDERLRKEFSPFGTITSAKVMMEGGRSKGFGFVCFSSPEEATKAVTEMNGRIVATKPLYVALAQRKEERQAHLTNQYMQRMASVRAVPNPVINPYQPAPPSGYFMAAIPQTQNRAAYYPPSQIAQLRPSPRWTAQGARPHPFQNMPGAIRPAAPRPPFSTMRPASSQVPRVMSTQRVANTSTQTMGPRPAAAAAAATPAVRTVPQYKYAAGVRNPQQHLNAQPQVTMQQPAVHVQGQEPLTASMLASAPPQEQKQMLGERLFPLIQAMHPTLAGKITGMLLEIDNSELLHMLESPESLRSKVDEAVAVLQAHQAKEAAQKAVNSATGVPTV
T6 sequence (Q07820 whole entry): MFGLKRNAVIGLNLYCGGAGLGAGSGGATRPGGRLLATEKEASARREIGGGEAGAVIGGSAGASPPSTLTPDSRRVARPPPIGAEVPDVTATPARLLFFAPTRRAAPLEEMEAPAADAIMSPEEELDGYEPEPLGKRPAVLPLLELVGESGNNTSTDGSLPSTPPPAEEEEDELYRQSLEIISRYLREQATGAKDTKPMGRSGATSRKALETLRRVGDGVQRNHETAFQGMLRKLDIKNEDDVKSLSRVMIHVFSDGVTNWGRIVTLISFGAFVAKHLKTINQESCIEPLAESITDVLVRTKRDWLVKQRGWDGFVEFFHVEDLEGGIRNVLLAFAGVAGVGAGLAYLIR
T4 sequence (Q92731 whole entry): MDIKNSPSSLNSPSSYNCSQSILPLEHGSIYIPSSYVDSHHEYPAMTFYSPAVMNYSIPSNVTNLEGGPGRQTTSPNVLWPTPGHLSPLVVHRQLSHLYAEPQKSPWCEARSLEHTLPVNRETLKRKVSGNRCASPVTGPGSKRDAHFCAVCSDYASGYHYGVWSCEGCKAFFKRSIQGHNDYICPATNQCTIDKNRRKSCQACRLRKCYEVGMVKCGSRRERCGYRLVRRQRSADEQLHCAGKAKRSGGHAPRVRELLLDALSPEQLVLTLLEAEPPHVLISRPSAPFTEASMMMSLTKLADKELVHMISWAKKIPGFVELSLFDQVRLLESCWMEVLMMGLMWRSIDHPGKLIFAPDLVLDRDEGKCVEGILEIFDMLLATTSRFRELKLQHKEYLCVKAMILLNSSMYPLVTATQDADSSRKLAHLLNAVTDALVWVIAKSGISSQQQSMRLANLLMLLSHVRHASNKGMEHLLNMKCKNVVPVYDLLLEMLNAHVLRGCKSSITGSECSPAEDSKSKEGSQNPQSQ
Cytochrome P450 2D6, sequence (P10635 whole entry): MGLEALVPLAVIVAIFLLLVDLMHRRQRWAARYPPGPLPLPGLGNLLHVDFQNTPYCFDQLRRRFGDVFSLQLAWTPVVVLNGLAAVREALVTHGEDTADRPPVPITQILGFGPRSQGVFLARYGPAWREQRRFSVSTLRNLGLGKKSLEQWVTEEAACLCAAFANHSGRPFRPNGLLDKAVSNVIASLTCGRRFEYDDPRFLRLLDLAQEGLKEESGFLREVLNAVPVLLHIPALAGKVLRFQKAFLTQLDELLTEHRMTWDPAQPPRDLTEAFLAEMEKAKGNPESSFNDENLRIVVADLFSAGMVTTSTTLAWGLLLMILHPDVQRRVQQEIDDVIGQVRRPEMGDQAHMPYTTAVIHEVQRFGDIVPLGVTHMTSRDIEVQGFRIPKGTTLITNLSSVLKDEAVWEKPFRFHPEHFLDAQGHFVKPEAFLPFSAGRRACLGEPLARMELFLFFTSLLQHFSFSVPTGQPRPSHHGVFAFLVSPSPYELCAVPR
Sphingosine 1-phosphate receptor 2, sequence (O95136 whole entry): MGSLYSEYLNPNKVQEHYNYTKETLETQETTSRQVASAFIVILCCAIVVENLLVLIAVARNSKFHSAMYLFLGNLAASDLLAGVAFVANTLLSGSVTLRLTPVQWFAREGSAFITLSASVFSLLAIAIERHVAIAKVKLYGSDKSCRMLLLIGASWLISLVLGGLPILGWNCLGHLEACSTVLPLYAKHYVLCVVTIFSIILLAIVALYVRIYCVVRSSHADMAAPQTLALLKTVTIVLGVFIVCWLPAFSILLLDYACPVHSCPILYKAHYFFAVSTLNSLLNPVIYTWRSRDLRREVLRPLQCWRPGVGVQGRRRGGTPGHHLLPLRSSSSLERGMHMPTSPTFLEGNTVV
Bcl-2-like protein 1, sequence (Q07817 whole entry): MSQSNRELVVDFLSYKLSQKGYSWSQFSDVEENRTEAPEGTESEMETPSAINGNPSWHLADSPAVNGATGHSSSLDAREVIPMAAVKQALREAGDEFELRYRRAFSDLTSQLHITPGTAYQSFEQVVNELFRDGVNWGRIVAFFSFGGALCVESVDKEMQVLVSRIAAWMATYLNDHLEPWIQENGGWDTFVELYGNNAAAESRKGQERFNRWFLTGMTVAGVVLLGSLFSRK
Nonstructural protein 1, sequence (Q194T2 whole entry, the tested form may be a part): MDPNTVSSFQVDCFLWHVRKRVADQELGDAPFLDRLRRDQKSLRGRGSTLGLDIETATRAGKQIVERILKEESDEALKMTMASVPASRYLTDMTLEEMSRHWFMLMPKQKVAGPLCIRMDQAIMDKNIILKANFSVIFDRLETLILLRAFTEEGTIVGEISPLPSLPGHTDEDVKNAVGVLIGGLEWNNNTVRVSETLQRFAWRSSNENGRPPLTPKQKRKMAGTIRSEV
Genome polyprotein, sequence (P29990 2492-3391 limits assumed): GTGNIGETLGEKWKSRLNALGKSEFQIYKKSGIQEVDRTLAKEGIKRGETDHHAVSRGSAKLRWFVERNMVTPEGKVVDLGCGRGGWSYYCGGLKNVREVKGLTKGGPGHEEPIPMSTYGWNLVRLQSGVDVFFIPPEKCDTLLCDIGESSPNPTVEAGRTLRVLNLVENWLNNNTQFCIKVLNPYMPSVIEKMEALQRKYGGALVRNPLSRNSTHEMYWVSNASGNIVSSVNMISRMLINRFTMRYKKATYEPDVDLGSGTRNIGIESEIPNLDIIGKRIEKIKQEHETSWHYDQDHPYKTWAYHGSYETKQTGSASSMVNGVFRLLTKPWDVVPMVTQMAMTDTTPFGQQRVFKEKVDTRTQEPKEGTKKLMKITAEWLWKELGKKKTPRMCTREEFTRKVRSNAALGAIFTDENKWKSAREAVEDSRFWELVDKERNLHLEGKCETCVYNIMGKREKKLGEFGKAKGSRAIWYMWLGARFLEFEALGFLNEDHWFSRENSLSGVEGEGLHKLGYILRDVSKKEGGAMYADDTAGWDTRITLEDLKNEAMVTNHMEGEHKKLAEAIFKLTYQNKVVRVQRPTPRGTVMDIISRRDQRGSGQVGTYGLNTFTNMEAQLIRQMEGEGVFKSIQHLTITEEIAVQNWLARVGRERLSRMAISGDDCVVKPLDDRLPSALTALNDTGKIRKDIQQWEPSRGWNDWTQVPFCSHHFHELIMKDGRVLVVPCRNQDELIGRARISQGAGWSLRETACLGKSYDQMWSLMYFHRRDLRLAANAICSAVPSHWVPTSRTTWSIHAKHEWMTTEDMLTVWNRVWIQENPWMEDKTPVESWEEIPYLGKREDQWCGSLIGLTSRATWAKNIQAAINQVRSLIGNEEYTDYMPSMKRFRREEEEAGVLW
Protein-tyrosine kinase 2-beta, sequence (Q14289 whole entry): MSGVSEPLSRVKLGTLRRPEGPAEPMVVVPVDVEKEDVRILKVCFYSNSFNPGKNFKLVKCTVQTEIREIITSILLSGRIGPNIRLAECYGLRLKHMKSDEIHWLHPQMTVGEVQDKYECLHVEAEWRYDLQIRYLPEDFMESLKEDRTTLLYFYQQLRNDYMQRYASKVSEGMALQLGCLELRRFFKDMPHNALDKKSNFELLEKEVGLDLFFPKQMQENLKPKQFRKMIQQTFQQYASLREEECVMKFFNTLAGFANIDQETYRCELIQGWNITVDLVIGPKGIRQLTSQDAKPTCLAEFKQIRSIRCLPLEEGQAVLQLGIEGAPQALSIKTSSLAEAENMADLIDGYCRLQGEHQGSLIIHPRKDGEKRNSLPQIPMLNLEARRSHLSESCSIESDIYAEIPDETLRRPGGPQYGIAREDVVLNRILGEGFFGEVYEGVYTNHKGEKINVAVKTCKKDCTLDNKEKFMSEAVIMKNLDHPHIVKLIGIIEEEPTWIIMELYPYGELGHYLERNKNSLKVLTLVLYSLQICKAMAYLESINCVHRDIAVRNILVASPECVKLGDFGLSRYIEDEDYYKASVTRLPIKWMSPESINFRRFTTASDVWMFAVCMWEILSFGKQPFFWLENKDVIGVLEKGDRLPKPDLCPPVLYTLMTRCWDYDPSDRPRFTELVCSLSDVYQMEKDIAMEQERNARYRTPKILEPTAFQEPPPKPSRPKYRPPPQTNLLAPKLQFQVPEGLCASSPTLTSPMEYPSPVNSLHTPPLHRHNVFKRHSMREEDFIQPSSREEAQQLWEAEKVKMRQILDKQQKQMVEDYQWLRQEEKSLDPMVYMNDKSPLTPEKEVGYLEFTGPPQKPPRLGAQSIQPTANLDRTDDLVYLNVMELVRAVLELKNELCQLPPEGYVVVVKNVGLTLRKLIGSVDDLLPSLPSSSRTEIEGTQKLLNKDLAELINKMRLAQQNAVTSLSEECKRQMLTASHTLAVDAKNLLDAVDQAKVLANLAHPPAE

`Oc1ccc(CN2CCCc3ccccc32)c2cccnc12`: the AC50 was 17.3 µM (active) in [1], 5.4 µM (active) in [2], 8.25 µM (active) in assay [5] and 11.8 µM (active) in the assay with INS1. Also, the IC50 was 32.2 µM (active) at Nonstructural protein 1; > 66 µM (inactive) in assay [3]; > 50 µM (not active) in assay [4]; > 50 µM (not active) in assay [6]; > 66 µM (inactive) in [8]. For the same molecule, the EC50 in [7] was 29 µM (active).

Take `CCn1c(SCC(=O)N2CCOCC2)nc2oc3c(Cl)cc(Cl)cc3c(=O)c2c1=O`: the EC50 is > 20 µM (not active) in assay [9], > 20 µM (not active) in assay [12] and 16.1 µM (inconclusive) in [14]. The IC50 against Estrogen receptor beta [10] was 13.3 µM (not active); in assay [11], > 100 µM (not active); at Estrogen receptor beta [13] it was 17.2 µM (active). Further, the AC50 at Cytochrome P450 2D6 is 15.8 µM (inconclusive).

`CCc1sc(C(C2C(=O)CC(C)(C)CC2=O)C2C(=O)CC(C)(C)CC2=O)cc1[N+](=O)[O-]`: the figures for the IC50 (in [15]; on Genome polyprotein; at Bcl-2-like protein 1) were 6.08 µM (active), 16.4 µM (active) and > 109 µM (not active), respectively.

`Cn1c(SCC(=O)Nc2ccc3nc(SCC(=O)N4CCCC4)sc3c2)nnc1-c1ccc(N)cc1`: the IC50 is 58.3 µM (inactive) on Bcl-2-like protein 10, 2.5 µM (active) in assay [16] and 1.82 µM (active) in assay [17].

On to `O=C(CCC(=O)Nc1ccccc1)Nc1ccccc1`, for which the IC50 against NADPH oxidase 1 is listed as > 17 µM (not active).

As for `Cc1cc(C(=O)Cn2cnc3c(oc4ccccc43)c2=O)c(C)n1Cc1ccccc1`, the EC50 in [18] is on record as > 30 µM (not active).
